Series [1] deals with T1, 5-hydroxytryptamine receptor 1A (Homo sapiens) (UniProt P08908).
T1 sequence (whole entry): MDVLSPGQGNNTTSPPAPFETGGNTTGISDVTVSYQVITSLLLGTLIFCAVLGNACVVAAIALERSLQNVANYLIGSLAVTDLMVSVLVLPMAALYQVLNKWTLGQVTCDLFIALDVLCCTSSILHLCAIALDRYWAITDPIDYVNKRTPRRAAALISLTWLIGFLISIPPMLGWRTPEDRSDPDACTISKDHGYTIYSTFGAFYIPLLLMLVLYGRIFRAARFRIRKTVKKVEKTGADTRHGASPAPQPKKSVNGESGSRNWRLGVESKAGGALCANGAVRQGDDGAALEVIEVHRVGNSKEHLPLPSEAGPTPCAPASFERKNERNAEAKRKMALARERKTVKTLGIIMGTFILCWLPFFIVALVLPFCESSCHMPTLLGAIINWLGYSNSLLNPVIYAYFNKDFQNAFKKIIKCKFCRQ
The series is described as follows: Positive allosteric modulation of N-terminal FLAG-tagged Rluc8-fused human 5-HT-1A expressed in HEK293T cells by BRET assay relative to control. It is filed as cell-based.

For series [2], the target named is Cannabinoid receptor 2 (Homo sapiens) (UniProt P34972). The series is described as follows: Displacement of [3H]-CP55940 from cannabinoid CB2 receptor (unknown origin) at 1 uM incubated for 90 mins by Radioligand binding assay.
Sequence of Cannabinoid receptor 2 (Homo sapiens) (P34972 whole entry): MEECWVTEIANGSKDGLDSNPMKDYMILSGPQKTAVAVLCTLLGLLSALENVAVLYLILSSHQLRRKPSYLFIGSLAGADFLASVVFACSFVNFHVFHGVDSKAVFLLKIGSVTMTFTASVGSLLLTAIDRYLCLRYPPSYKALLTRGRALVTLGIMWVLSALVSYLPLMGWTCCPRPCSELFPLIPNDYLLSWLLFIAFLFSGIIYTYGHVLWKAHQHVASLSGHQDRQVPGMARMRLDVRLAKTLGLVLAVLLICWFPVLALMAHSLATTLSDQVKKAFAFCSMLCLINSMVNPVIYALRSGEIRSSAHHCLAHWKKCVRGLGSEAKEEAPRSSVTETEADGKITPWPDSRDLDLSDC
In series [3] the target is Cannabinoid receptor 1 (Homo sapiens) (UniProt P21554). Briefly: Displacement of [3H]-CP55940 from cannabinoid CB1 receptor (unknown origin) at 1 to 10 uM incubated for 90 mins by Radioligand binding assay. As to conditions: dose 1-10 µM.
Sequence of Cannabinoid receptor 1 (Homo sapiens) (P21554 whole entry): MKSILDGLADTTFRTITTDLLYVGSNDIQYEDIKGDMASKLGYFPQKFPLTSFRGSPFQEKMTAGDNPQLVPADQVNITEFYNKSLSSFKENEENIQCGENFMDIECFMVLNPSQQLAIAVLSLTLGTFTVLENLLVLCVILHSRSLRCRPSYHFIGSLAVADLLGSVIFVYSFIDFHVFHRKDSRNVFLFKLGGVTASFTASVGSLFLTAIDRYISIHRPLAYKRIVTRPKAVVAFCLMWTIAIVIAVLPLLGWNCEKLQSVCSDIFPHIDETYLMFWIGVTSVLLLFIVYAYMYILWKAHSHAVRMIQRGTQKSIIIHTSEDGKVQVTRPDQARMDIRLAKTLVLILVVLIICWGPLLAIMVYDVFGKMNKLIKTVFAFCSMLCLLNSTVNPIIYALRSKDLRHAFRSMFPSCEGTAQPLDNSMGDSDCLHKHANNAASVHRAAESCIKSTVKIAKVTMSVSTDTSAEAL
In series [4] the target is T1, 5-hydroxytryptamine receptor 1A (Homo sapiens). The series is described as follows: Agonist activity at PK-tagged human 5-HT-1A receptor expressed in CHO-K1 cells at > 0.5 uM incubated for 90 mins by measuring beta-arrestin recruitment by PathHunter assay. As to conditions: filed as agonist. Format: functional, cell-based.
Series [5] is described as follows: Stability of compound in MCT oil at 40 degreeC measured upto 2 months by HPLC-DAD analysis. It is filed as physicochemical. As to conditions: 1460 h.
Series [6] has as its target T1, 5-hydroxytryptamine receptor 1A (Homo sapiens). Briefly: Positive allosteric modulation of PK-tagged human 5-HT-1A receptor expressed in CHO-K1 cells assessed as receptor activation at 4 uM in presence of serotonin preincubated with compound for 30 mins followed by serotonin addition and measured after 90 mins by measuring beta arrestin recruitment by chemiluminescence based envision reader analysis relative to control. As to conditions: filed as positive allosteric modulator. It is filed as functional, cell-based.

The target is the same in series [7]. The series is described as follows: Agonist activity at PK-tagged human 5-HT-1A receptor expressed in CHO-K1 cells at 12 uM incubated for 90 mins by measuring beta-arrestin recruitment by PathHunter assay relative to control. It is filed as functional, cell-based.
For series [8] the target is unchanged. Briefly: Displacement of [3H]-8-Hydroxy-DPAT from 5-HT-1A receptor (unknown origin) at 1 uM incubated for 90 mins by Radioligand binding assay relative to control.
Series [9] shares this target. Briefly: Positive allosteric modulation of PK-tagged human 5-HT-1A receptor expressed in CHO-K1 cells assessed as receptor activation at > 10 uM in presence of serotonin at 175 nM preincubated with compound for 30 mins followed by serotonin addition and measured after 90 mins by measuring beta arrestin recruitment by chemiluminescence based envision reader analysis. Format: functional, cell-based.

Series [10] addresses Spike glycoprotein (Severe acute respiratory syndrome coronavirus 2, UniProt P0DTC2). The series is described as follows: Inhibition of SARS-COV-2 spike protein.
The nature of series [11]: Stability of compound at 25 degreeC measured upto 2 months by HPLC-DAD analysis. As to conditions: 1460 h. It is filed as physicochemical.
Series [12] deals with T1, 5-hydroxytryptamine receptor 1A (Homo sapiens). The series is described as follows: Positive allosteric modulation of PK-tagged human 5-HT-1A receptor expressed in CHO-K1 cells assessed as receptor activation at 1 uM in presence of serotonin at 175 nM preincubated with compound for 30 mins followed by serotonin addition and measured after 90 mins by measuring beta arrestin recruitment by chemiluminescence based envision reader analysis relative to control. It is filed as functional, cell-based. As to conditions: filed as positive allosteric modulator.

For series [13] the target is unchanged. The series is described as follows: Positive allosteric modulation of PK-tagged human 5-HT-1A receptor expressed in CHO-K1 cells assessed as receptor activation at 12 uM in presence of serotonin preincubated with compound for 30 mins followed by serotonin addition and measured after 90 mins by measuring beta arrestin recruitment by chemiluminescence based envision reader analysis. It is filed as functional, cell-based.

Series [14] shares this target. Briefly: Positive allosteric modulation of PK-tagged human 5-HT-1A receptor expressed in CHO-K1 cells assessed as receptor activation at 50 nM in presence of serotonin at 40 nM preincubated with compound for 30 mins followed by serotonin addition and measured after 90 mins by measuring beta arrestin recruitment by chemiluminescence based envision reader analysis. Format: functional, cell-based. The note with it: filed as positive allosteric modulator, time 120.0 min.

The target is the same in series [15]. The series is described as follows: Positive allosteric modulation of PK-tagged human 5-HT-1A receptor expressed in CHO-K1 cells assessed as receptor activation in presence of serotonin preincubated with compound for 30 mins followed by serotonin addition and measured after 90 mins by measuring beta arrestin recruitment by chemiluminescence based envision reader analysis. It is filed as functional, cell-based. The note with it: filed as positive allosteric modulator, dose 0.6-12000 nM.

Calls of active or inactive are those of the source. The rule behind the calls is not given here.

On to `CCCCCn1cc(C(=O)c2cccc3ccccc23)c2ccccc21`, for which, in series [1], the Activity is 12%.

As to `O=C(c1cccc2ccccc12)c1cn(CCCCCF)c2ccccc12`, the Activity in series [1] came to 21%.

Take `CCCCCc1cc(O)c2c(c1)OC1(C)CCC3C1C2C3(C)C` (racemic) [CANNABICYCLOL]: the result in series [2], in series [3], in [9] and in series [13] was inactive. Also, the Activity result in series [4] was “Active; Minimal Agonist Activity Observed”; in series [6], 80%; in series [7], 15%; in [8], 20%; in series [12], 100%; in series [15] it was “Dose-dependent-effect”. In addition, the Stability entry in [5] and in series [11] was “Stable” in each case. The compound also showed an EC50 in [10] of 10.8 µM. The result in series [14] was Active.

The values are drawn from ChEMBL document CHEMBL6121035, “An Unexpected Activity of a Minor Cannabinoid: Cannabicyclol (CBL) Is a Potent Positive Allosteric Modulator of Serotonin 5-HT1A Receptor” (J Nat Prod, 2025).
